Data reported in US20060035901A1, “Methotrexate derivatives useful for treating cancer and arthritis” (Serenex, Inc., priority 2004, published 2006).

Assays:
B-Raf = B-Raf (Homo sapiens, UniProt P15056); assay: Elution of B-Raf from ATP-Sepharose column by compound (Proteome Mining), IC50 estimate; format: binding; details: estimated from percent of protein eluted from ATP-Sepharose column, gel densitometry; read-out: Approximate IC50 for B-Raf
Description: (§1) A proteome containing a known quantity of Her2, EGFR, and B-Raf was run over an ATP-Sepharose™ column in order to bind all purine-binding proteins. See, WO 00/63694 and U.S. Provisional Application No. 60/453,697 filed Jan. 22, 2003, each of which is incorporated by reference in its entirety. The ATP-Sepharose™ was washed several times, and then eluted with the compound of Formula III. The experiment was run in duplicate at concentrations of 20 μM, 100 μM, and 500 μM of the compound of Formula III. The eluted fractions were run on a 1-dimensional SDS polyacrylamide gel. Gels were stained with a fluorescent stain such as sypro ruby (a highly sensitive fluorescent protein stain that can readily detect less than 1 fmol of total protein, i.e., less than 0.04 ng for a 40 kDa protein). The gels were imaged using a standard flat bed gel imager and the amount of protein estimated by densiometry. The percent of protein eluted from the column at each concentration was determined and IC50 values were calculated from these estimates. Where necessary, the eluted proteins were cut out of the gel, and identified using mass spectral techniques.
(§2) These steps were repeated with each of the compounds of Formulas IV-X, MTX, and the c series derivative.

EGFR = EGFR (Homo sapiens, UniProt P00533); assay: Elution of EGFR from ATP-Sepharose column by compound (Proteome Mining), IC50 estimate; format: binding; details: estimated from percent of protein eluted from ATP-Sepharose column, gel densitometry; read-out: Approximate IC50 for EGFR
Chain of EGFR (P00533 25-1210, species assumed): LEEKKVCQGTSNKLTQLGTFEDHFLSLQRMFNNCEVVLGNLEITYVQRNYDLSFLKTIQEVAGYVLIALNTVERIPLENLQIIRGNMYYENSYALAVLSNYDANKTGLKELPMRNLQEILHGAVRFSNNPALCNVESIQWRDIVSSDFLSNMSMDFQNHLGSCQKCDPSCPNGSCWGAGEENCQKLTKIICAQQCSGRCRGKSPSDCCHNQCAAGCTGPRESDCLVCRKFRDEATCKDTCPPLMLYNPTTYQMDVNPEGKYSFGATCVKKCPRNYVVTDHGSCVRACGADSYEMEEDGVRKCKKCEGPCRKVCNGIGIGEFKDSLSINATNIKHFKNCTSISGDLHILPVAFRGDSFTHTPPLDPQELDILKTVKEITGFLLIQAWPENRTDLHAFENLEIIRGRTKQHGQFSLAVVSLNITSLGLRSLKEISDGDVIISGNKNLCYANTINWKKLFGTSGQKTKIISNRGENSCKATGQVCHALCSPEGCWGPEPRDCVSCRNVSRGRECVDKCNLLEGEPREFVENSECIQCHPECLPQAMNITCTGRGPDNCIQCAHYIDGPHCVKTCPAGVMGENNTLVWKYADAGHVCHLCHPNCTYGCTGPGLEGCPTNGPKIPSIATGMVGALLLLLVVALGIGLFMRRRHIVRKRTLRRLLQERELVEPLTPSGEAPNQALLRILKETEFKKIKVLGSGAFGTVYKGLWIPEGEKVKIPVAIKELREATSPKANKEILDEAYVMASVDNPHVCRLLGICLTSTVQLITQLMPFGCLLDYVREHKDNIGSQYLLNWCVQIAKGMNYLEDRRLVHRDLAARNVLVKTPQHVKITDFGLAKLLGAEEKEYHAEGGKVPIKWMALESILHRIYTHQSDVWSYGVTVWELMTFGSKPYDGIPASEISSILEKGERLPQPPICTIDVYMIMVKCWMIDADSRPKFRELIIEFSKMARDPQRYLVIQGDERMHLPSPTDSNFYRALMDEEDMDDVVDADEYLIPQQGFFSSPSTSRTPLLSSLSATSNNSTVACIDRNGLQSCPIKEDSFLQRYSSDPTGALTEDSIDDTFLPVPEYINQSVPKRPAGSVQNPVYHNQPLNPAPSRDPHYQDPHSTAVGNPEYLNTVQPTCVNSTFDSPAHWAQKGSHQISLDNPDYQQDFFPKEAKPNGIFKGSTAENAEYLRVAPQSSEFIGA
Description: as §1, §2

[1] = tested on: DMS-114 (N/A; small cell); assay: Cell proliferation assay (WST-1), DMS-114; format: cell-based; details: DMS-114 cells
Description: (§3) A panel of cancer cell lines was obtained from the DCTP Tumor Repository, National Cancer Institute (Fredrick, Md.) or ATCC (Rockville, Md.). Cell cultures were maintained in Hyclone RPMI 1640 medium (Logan, Utah) supplemented with 10% fetal bovine serum and 20 mM HEPES buffer, pH 7.2, at 37° C., 5% CO2 atmosphere. Cultures were maintained at sub-confluent densities.
(§4) For proliferation assays, cells were seeded with the appropriate medium into 96 well plates at 1,000-2,000 cells per well, depending on cell line, and were incubated overnight. The following day, an amount of test compound, DMSO solution (negative control), or Actinomycin D (positive control) was added to the appropriate wells as 10× concentrated stocks prepared in phosphate buffered saline. The cell plates were then incubated for an additional 2-5 days, dependent on cell line, to allow for proliferation to occur. […] Optical density was determined for each well a 450 nm using a Tecan GniosPro plate reader (RTP, NC). The percentage of cell growth was then determined by comparing the cell growth in the presence of test compounds to the DMSO vehicle control treated cells (100% growth) and […] Actinomycin D treated cells (0% growth).

[2] = molecular target: T1, propionyl-CoA carboxylase subunit beta (PCCB) (Sus scrofa, UniProt P79384); assay: Elution of PCCB from ATP-Sepharose column loaded with porcine liver proteome, IC50 estimate; format: binding; details: estimated from percent of protein eluted from ATP-Sepharose column, read-out: Approximate IC50 for PCCB
T1 construct: a porcine liver proteome was run over an ATP-Sepharose™ column; from tissue; host or cells: porcine liver
T1 sequence (P79384 29-539): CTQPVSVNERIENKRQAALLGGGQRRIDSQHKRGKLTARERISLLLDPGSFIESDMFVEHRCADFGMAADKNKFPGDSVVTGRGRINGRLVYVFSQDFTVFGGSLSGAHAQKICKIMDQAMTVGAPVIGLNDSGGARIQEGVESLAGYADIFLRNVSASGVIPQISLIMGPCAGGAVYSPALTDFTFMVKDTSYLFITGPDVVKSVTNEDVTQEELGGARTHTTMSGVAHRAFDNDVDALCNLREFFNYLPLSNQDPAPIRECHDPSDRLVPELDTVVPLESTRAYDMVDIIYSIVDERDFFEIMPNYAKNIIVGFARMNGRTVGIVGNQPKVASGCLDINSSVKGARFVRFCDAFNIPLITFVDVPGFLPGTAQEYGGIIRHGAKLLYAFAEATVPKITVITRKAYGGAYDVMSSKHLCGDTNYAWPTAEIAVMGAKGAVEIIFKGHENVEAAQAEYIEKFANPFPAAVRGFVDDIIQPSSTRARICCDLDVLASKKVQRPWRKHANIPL
T1 sequence (P0DTA4 53-730 partner): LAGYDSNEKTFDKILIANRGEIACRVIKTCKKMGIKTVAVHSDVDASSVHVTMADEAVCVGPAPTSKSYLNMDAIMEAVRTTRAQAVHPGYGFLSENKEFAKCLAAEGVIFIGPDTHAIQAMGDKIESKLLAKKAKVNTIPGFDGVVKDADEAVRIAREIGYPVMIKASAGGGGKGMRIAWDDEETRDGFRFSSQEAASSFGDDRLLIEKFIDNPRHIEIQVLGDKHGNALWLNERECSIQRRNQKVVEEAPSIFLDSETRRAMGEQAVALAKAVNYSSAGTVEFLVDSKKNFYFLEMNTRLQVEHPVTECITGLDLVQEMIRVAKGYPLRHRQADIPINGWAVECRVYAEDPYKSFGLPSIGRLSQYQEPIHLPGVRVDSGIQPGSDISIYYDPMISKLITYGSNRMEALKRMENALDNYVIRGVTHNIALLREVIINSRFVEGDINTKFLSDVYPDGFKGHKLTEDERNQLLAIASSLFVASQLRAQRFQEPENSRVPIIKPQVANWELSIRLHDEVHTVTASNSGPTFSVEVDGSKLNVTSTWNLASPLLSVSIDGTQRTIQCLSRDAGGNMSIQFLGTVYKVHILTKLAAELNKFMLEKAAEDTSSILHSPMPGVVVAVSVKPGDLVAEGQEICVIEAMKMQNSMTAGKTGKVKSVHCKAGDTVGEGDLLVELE
Description: Similar experiments were carried out to compare the IC50 values for PYC, PCCA, and PCCB. In these trials, a porcine liver proteome was run over an ATP-Sepharose™ column to bind all purine-binding proteins. The ATP-Sepharose™ column was washed several times, and then eluted with the compound of Formula III at concentrations of 1 μM, 5 μM, 10 μM, 50 μM, 100 μM, and 500 μM to identify proteins that bound to this compound.
Gels were stained with a fluorescent stain such as sypro ruby (a highly sensitive fluorescent protein stain that can readily detect less than 1 fmol of total protein, i.e., less than 0.04 ng for a 40 kDa protein). The gels were imaged using a standard flat bed gel imager and the amount of protein estimated by densiometry. The percent of protein eluted from the column at each concentration was determined and IC50 values were calculated from these estimates. Where necessary, the eluted proteins were cut out of the gel, and identified using mass spectral techniques.
The values obtained were then compared to those for DHFR.

[3] = tested on: SF-268 (central nervous system; anaplastic astrocytoma); assay: Cell proliferation assay (WST-1), SF-268; format: cell-based; details: SF-268 cells
Description: as §3, §4

Chain of B-Raf (P15056 whole entry, species assumed): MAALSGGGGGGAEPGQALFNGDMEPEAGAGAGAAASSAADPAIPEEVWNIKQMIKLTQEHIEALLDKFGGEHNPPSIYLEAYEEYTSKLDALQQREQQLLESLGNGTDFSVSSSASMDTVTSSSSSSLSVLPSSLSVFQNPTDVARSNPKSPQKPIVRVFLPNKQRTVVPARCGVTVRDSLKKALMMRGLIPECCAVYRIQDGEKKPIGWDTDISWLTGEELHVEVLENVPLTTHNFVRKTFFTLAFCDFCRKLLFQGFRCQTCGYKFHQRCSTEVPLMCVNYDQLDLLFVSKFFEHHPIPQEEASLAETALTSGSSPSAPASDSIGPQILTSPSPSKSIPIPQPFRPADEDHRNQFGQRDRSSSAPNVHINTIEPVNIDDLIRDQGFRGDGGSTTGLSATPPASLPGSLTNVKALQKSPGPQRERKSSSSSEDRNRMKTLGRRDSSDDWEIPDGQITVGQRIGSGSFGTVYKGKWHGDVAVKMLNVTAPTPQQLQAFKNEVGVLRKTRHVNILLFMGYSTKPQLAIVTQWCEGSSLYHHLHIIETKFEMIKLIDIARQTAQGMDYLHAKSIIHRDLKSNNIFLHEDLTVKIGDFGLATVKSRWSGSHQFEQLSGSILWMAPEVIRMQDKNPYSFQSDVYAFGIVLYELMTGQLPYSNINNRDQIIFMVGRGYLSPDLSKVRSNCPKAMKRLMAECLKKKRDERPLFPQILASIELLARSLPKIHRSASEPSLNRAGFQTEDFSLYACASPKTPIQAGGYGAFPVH

| Compound | IC50 (B-Raf) | IC50 (EGFR) | Fold Improvement in Cell Proliferation IC50 Compared to MTX [1] | IC50 [2] | Fold Improvement in Cell Proliferation IC50 Compared to MTX [3] |
| --- | --- | --- | --- | --- | --- |
| C#CCN(Cc1cnc2nc(N)nc(N)c2n1)c1ccc(C(=O)NC(CCC(=O)O)C(=O)O)cc1C (stereo not drawn) [Formula III, 2-{4-[(2,4-diamino-pteridin-6-ylmethyl)-prop-2-ynyl-amino]-3-methyl-benzoylamino}-pentanedioic acid] | 5 µM | 5 µM | >4 fold | 3.5 µM | >4 fold |
| Cc1cc(C(=O)NC(CCC(=O)O)C(=O)O)ccc1N(Cc1ccoc1)Cc1cnc2nc(N)nc(N)c2n1 (stereo not drawn) [Formula VII] | – | – | – | 3 µM | – |
| C#CCN(Cc1cnc2nc(N)nc(N)c2n1)c1ccc(C(=O)NC(CCC(=O)O)C(=O)O)cc1OC (stereo not drawn) [Formula VIII] | 5 µM | – | – | 3.5 µM | – |
| C#CCN(Cc1cnc2nc(N)nc(N)c2n1)c1ccc(C(=O)NC(CCC(=O)O)C(=O)O)cc1OC(F)(F)F (stereo not drawn) [Formula IX] | – | – | – | 14 µM | – |
